{"source": "patent US9758395B2", "about": "“Lysine-based polymer coagulants for use in clarification of process waters” (priority 2011, dated 2017)", "assay": "Solubility of lysine HCl in water with temperature", "assay_type": "physicochemical", "details": "room temperature (20-25° C.), monohydrochloride", "procedure": "The solubilities of lysine were essentially the same with and without the maleic acid added to the water. For example, samples of lysine HCl were added to water in sealed, glass bottles, shaken, and placed in the forced-air oven at various temperatures. These were manually shaken periodically over the next few hours, then left to dissolve overnight. […] At 70° C., the lysine completely dissolved to 60%; at 80° C. to 62%; at 90° C. to 64%; at 100° C. to 66% lysine by weight in water. […] Representative samples of these materials were dried and polymerized at 220° C., 5 to 7 hours, under nitrogen."}
{"smiles": "Cl.NCCCC[C@H](N)C(=O)O", "note": "[lysine HCl, L-lysine monohydrochloride]", "values": [{"measurement": "solubility in water", "setting": "listed as lysine", "result": 50, "unit": "% by weight"}, {"measurement": "solubility in water", "result": "about 50 % by weight"}]}
